Read-outs that look alike come from different tables or passages of the source. [nps] = N3'→P5' thiophosphoramidate linkage
Tests used:
[1] = tested on: animal tumor models, including ovarian and lung, both small cell and non-small cell; settings: cited from earlier work
[2] = tested on: epidermoid carcinoma, breast epithelium, renal carcinoma, renal adenocarcinoma, pancreatic, brain, colon, prostate, leukemia, lymphoma, myeloma, epidermal …; settings: administered alone, in vitro; cited from earlier work
[3] = tested on: advanced stage non-small cell lung cancer; test: Imetelstat NSC Lung Cancer Phase II (CP14B-012) Study, progression-free survival analysis by tumor telomere length subgroup; assay type: in vivo, human; settings: for responsiveness (progression-free survival) of patients with short telomeres vs medium-long telomeres: telomere length subgroups by qPCR
Source text: The purpose of the NSC Phase II (CP14B-012) Study was to evaluate the efficacy and safety of imetelstat (GRN163L) as maintenance therapy for patients with advanced stage non-small cell lung cancer who have not progressed after 4 cycles of platinum based therapy. Participants were randomized in a 2:1 ratio to imetelstat plus standard of care versus standard of care alone. Participants who received bevacizumab with their induction chemotherapy continued to receive bevacizumab in this study.
The primary outcome measures were progression-free survival, defined as the time from randomization to documented disease progression or death, whichever occurred earlier, as determined by the investigator's assessment according to RECIST (Response Evaluation Criteria in Solid Tumors). The secondary outcome measures were objective response, time to all-cause mortality, and safety and tolerability (assessed by the incidence, nature, and severity of adverse events, laboratory abnormalities, and vital signs.
The patients were divided into two arms. In the experimental arm, patients received Imetelstat plus the standard of care (Bevacizumab or observation). Specifically, 9.4 mg/kg of Imetelstat (GRN163L) was given to patients over a 2 hour IV infusion on Day 1 and Day 8 of each 21 day cycle until disease progression. If administered, Bevacizumab was given on Day 1 of each 21-day cycle, with dosage and duration according to the FDA-approved Bevacizumab package insert.
In the control arm, patients received Bevacizumab or observation. If administered, Bevacizumab was given on Day 1 of each 21-day cycle, with dosage and duration according to the FDA-approved Bevacizumab package insert.
Samples were obtained from 61 of the 116 patients enrolled in the NSC Phase II (CP14B-012) Study described above. […] Each assay produced data for between 7 and 14545 foci from six regions (‘fields’) on a slide. The area and fluorescent intensity were recorded for each of the foci.
The IN Cell developer Toolbox 1.9 (GE Corp.) was utilized to quantitate the average telomere length from cells obtained from biological samples and subjected to telo-FISH. This software was used to draw lines around cell nuclei based on the location of the DAPI stain, and around cell telomeres based on the location of the telomere-specific fluorescence. Once each nucleus and telomere was encircled, the software calculated the intensity and the area of each individual telomere in the cells and determined the average telomere length for the cells derived from the biological sample according to Equation 1: 1.376×log2(intensity)−6.215×√(area) [Equation 1]. Results
This Example followed all of the procedures of Example 2 with the following changes to the qPCR protocol.

Row | Substance | therapeutic efficacy in animal tumor models [1] | inhibitory activity in cell culture [2] | progression-free survival hazard ratio (95% CI) [3] | progression-free survival hazard ratio (95% CI) ([3]; Telo-FISH quartile split, small intensity/area (15/59, 25.4%), Example 3, Imetelstat vs control) | progression-free survival median (95% CI) ([3]; Telo-FISH quartile split, small intensity/area (15/59, 25.4%, shortest telomeres), Example 3, Imetelstat arm) | progression-free survival median (95% CI) ([3]; medium-long telomere subgroup (34 of 52 samples, 65%), second qPCR protocol of Example 4, Imetelstat arm) | progression-free survival median (95% CI) ([3]; medium-long telomere subgroup (38 of 57 samples, 67%), qPCR of Example 2, Imetelstat arm) | progression-free survival hazard ratio (95% CI) ([3]; medium-long telomere subgroup (65%), second qPCR protocol of Example 4, Imetelstat vs control) | progression-free survival events/N ([3]; medium-long telomere subgroup (67%), qPCR of Example 2, Imetelstat arm) | progression-free survival median (95% CI) ([3]; short telomere subgroup (18 of 52 samples, 35%), second qPCR protocol of Example 4, Imetelstat arm) | progression-free survival median (95% CI) ([3]; short telomere subgroup (19 of 57 samples, 33%), qPCR of Example 2, Imetelstat 9.4 mg/kg IV Day 1 and 8 of 21 day cycle plus standard of care) | progression-free survival events/N ([3]; short telomere subgroup (33%), qPCR of Example 2, Imetelstat arm) | progression-free survival hazard ratio (95% CI) ([3]; short telomere subgroup (33%), qPCR of Example 2, Imetelstat vs control arm) | progression-free survival hazard ratio (95% CI) ([3]; short telomere subgroup (35%), second qPCR protocol of Example 4, Imetelstat vs control) | responsiveness (progression-free survival) of patients with short telomeres vs medium-long telomeres ([3]; Example 2) | responsiveness (progression-free survival) of patients with short telomeres vs medium-long telomeres ([3]; Example 4)
1 | GRN163: oligonucleotide having sequence TAGGGTTAGACAA (SEQ ID NO:3) and N3′→P5′ thiophosphoramidate (NPS) linkages (all [nps], sugars by position and methylation of C not given here) | therapeutically effective | has shown inhibitory activity | – | – | – | – | – | – | – | – | – | – | – | – | – | –
2 | Imetelstat | – | – | 0.83 (0.36, 1.89) | 0.26 (0.06, 1.1) | 4.7 (1.41, NA) | 3.03 (1.58, 4.47) | 2.8 (1.51, 4.18) | 0.65 (0.27, 1.56) | 21/26 | 1.91 (1.22, NA) | 4.05 (1.25, NA) | 8/11 | 0.32 (0.1, 1.02) | 0.55 (0.17, 1.84) | significantly more responsive compared to controls | significantly more responsive compared to controls

Source: patent US9951389B2, “Diagnostic markers for treating cell proliferative disorders with telomerase inhibitors” (Geron Corporation, priority 2012, dated 2018)
